According to PMC9780942, “Antimicrobial Activity and Immunomodulatory Properties of Acidocin A, the Pediocin-like Bacteriocin with the Non-Canonical Structure” (Membranes, 2022):
Positions of bridges follow the written chain, without caps; N, C: chain ends. No end group written: not given here.

Columns and labels:
L. monocytogenes EGD = assay type: cell-based, Listeria monocytogenes; conditions: 24 h
Protocol: (§1) Antibacterial activity of recombinant bacteriocins against a number of Gram-positive and Gram-negative bacteria (Table S2) was determined by the method of two-fold serial dilutions in a liquid medium. Two-fold serial dilutions of bacteriocins were prepared in sterile 96-well flat-bottom polystyrene microplates (Eppendorf, Hamburg, Germany) (Cat. No. 0030730.011) in a volume of 50 µL of sterile 0.1% bovine serum albumin (BSA) (SERVA Electrophoresis GmbH, Heidelberg, Germany) to prevent non-specific sorption of peptides to the surface of the plate wells [23]. Mid-log phase bacterial cultures were diluted with the 2x Mueller-Hinton broth (MHB) (Sigma-Aldrich, St. Louis, MO, USA) to a final cell concentration of 10^6 colony forming units (CFU) per mL. To determine the activity of bacteriocins against Listeria and Enterococci, 3% tryptic soy broth (TSB) (Merck-Millipore, Burlington, MA, USA) was used instead of MHB. Aliquots of 50 μL of diluted bacterial suspensions were added to each well of the plate, which was then incubated at 37 °C and 950 rpm for 24 h using thermostatable plate shaker PST-60HL-4 (Biosan, Riga, Latvia). As a negative control, 50 µL of the sterile growth medium (2xMHB or 6% TSB) was added to the wells containing 50 µL of 0.1% BSA. The values of the minimum inhibitory concentrations (MIC) were determined as the minimum concentration of the peptide, at which there was no visible growth of bacterial culture. Incubation for 2 h with 20 µg/mL chromogenic substrate resazurin (Sigma-Aldrich, St. Louis, MO, USA) was used to detect viable bacterial cells if they were difficult to visually detect. To study the effect of inorganic salts on the antimicrobial activity of bacteriocins, antibacterial activity assay was carried out in MHB medium supplemented with 0.9% NaCl.

L. lactis MK43 = experiment: Antibacterial activity assay (MIC), two-fold serial dilutions in liquid medium; assay type: cell-based; conditions: MHB, 0.1% BSA, 37 °C, 24 h, no visible growth
Protocol: as §1

A. baumannii XDR CI 2675 = assay type: cell-based; conditions: XDR CI 2675, 24 h
Protocol: as §1

B. licheniformis B-511 = assay type: cell-based; conditions: 24 h
Protocol: as §1

B. subtilis B-886 = assay type: cell-based; conditions: B-886, 24 h
Protocol: as §1

E. coli ATCC 25922 = assay type: cell-based; conditions: ATCC 25922, 24 h
Protocol: as §1

E. coli ML-35p = assay type: cell-based; conditions: 24 h
Protocol: as §1

E. coli SQ110 = assay type: cell-based; conditions: SQ110, 24 h
Protocol: as §1

E. coli XDR CI 1057 = assay type: cell-based; conditions: XDR CI 1057, 24 h
Protocol: as §1

L. lactis MK66 = assay type: cell-based; conditions: MK66, 24 h
Protocol: as §1

M. luteus Ac-2229 = assay type: cell-based; conditions: Ac-2229, 24 h
Protocol: as §1

M. phlei Ac-1221 = assay type: cell-based; conditions: 24 h
Protocol: as §1

[1] = test system: P. aeruginosa MDR CI 1995; assay type: cell-based; conditions: MDR CI 1995, 24 h
Protocol: as §1

S. aureus 209P = assay type: cell-based; conditions: 24 h
Protocol: as §1

[2] = test system: E. coli ML-35p outer membrane; experiment: Outer membrane permeability assay with nitrocefin; assay type: cell-based; conditions: PBS pH 7.4 with NaCl, 35 °C, absorbance 492 nm, three independent experiments
Protocol: (§2) The ability of the peptides to disrupt the integrity of bacterial membranes was assessed using chromogenic substrates that are unable to enter the intact cell. For these assays, E. coli strain ML-35p was chosen that constitutively expresses β-lactamase (secreted into the periplasmic space), β-galactosidase (that is active in cytoplasm), and lacks lactose permease. Nitrocefin, which is a substrate for lactamase, served as an indicator of increased outer membrane permeability. o-Nitrophenyl-β-D-galactopyranoside (ONPG), a substrate for […], was used to assess the integrity of the cytoplasmic membrane. The bacterial cultures were grown to stationary phase in 3% TSB medium at 37 °C overnight. The cells were washed three times with cold 10 mM phosphate-buffered saline (PBS), pH 7.4 ([…], 2.7 mM KCl, 10 mM Na2HPO4, 1.76 mM KH2PO4), and diluted to the concentration of 3.3 × 10^7 CFU/mL with 10 mM PBS (pH 7.4), containing increased concentration of NaCl (1.2%, or 205 mM) and dissolved nitrocefin (Merck-Millipore, Burlington, MA, USA) or ONPG (AppliChem GmbH, Darmstadt, Germany). […] The plate was incubated at 35 °C, 500 rpm, and the absorbance of the hydrolysis products of ONPG or nitrocefin was measured spectrophotometrically at regular intervals at 405 nm or 492 nm, respectively, using AF2200 microplate reader (Eppendorf, Hamburg, Germany). […]

[3] = test system: E. coli ML-35p cytoplasmic membrane; experiment: Cytoplasmic membrane permeability assay with ONPG; assay type: cell-based; conditions: PBS pH 7.4 with NaCl, 35 °C, absorbance 405 nm, three independent experiments
Protocol: as §2

Sequence | Minimum Inhibitory Concentration (L. monocytogenes EGD) [µM] | Minimum Inhibitory Concentration (L. lactis MK43) [µM] | Minimum Inhibitory Concentration (A. baumannii XDR CI 2675) [µM] | Minimum Inhibitory Concentration (B. licheniformis B-511) [µM] | Minimum inhibitory concentration in the presence of NaCl (B. licheniformis B-511) [µM] | Minimum Inhibitory Concentration (B. subtilis B-886) [µM] | Minimum inhibitory concentration in the presence of NaCl (B. subtilis B-886) [µM] | Minimum Inhibitory Concentration (E. coli ATCC 25922) [µM] | Minimum Inhibitory Concentration (E. coli ML-35p) [µM] | Minimum Inhibitory Concentration (E. coli SQ110) [µM] | Minimum Inhibitory Concentration (E. coli XDR CI 1057) [µM] | Minimum Inhibitory Concentration (L. lactis MK66) [µM] | Minimum inhibitory concentration in the presence of NaCl (L. lactis MK66) [µM] | Minimum Inhibitory Concentration (M. luteus Ac-2229) [µM] | Minimum Inhibitory Concentration (M. phlei Ac-1221) [µM] | Minimum Inhibitory Concentration [1] [µM] | Minimum Inhibitory Concentration (S. aureus 209P) [µM] | Effect on outer membrane integrity (nitrocefin hydrolysis kinetics) [2] | Effect on cytoplasmic membrane integrity (ONPG hydrolysis kinetics) [3]
KTYYGTNGVHCTKNSLWGKVRLKNVKYDQNTTYIGRLQDILLGWATGAFGKTFH [OR-7(VI)] | >64 | >32 | >32 | 8 | > 32 | 16 | > 32 | >32 | >32 | >64 | >64 | 4 | > 32 | >32 | 32 | >32 | >32 | reduced | 
TYYGTNGVSCNKKGCSVDWGKAISIIGNNSAANLATGGAAGWKS (disulfide 10-15) [AviA(T)] | >32 | >32 | >32 | >32 |  | >32 |  | >32 | >32 | >32 | >32 | >32 |  | >32 | >32 | >32 | >32 | with the exception of AviA(T), were able to disrupt its integrity | melittin >> acidocin A ≈ pediocin box mutants > peptides without a disulfide bond > avicin A >> AviA(T)
